According to patent US5098900A, “3(2H)pyridazinone, process for its preparation and anti-allergic agent containing it” (Nissan Chemical Industries Ltd., priority 1984, dated 1992):

What follows are molecules tested on ddY strain male (assay: Acute toxicity test, method-(2), intraperitoneal injection). Details: 100 mg/kg, 7 days.
Type: in vivo, ddY strain male (4 weeks old)
Experimental: The lethal ratio was determined in ddY strain male (4 weeks old) at 7 days after the intraperitoneal injection of test compounds.

Question: How did the “Lethal ratio (Death number/Experimental number)” value turn out when `CCn1ncc(NCc2ccc(OC)cc2OC)c(Cl)c1=O` [compound 99] was run?
Answer: The value was 0/2.

Same assay, conditions: 200 mg/kg, 7 days

Question: For `Cc1ccc(CNc2cnn(C(C)C)c(=O)c2Cl)c(C)c1` [Compound No. 80], which “Lethal ratio (Death number/Experimental number)” value is on record?
Answer: Its value is 0/2.

Same assay, conditions: 400 mg/kg, 7 days

Question: For `Cc1ccc(CNc2cnn(C(C)C)c(=O)c2Cl)c(C)c1` [Compound No. 80], which “Lethal ratio (Death number/Experimental number)” value is on record?
Answer: The value was 0/1.

The molecules below were run on LTD4 (assay: LTD4 antagonism in isolated guinea-pig trachea (LTD4-induced contraction)). Details: Cavia porcellus, 5 min, test compound 10^-5 g/ml, LTD4 2×10^-8 g/ml.
Type: cell-based
Experimental: (§1) (ii) LTC4 and LTD4 antagonisms in guinea-pig trachea
(§2) Antagonism for LTC4 and LTD4 were determined in isolated guinea-pig trachea prepared as spiral strip. 10 Tracheal preparations were suspended under 1 g tension in […] and they were incubated for 1 hr prior to use. Contractile responses to LTC4 (2×10^-8 g/ml) and LTD4 (2×10^-8 g/ml) were obtained after the maximal response to histamine (10^-4 M). Test compounds dissolved in 100% dimethyl sulfoxide were added to the organ baths (final concentration of 10^-5 g/ml) 5 min prior to LTC4 and LTD4 addition, and then contractile responses to LTC4 and LTD4 were compared with those of control which was obtained from a paired trachea in the absence of test compounds. LTC4 - and LTD4 -induced contractions were expressed as a percentage of the maximal response to histamine. The antagonism was determined as follows: Antagonism (%)=(1.0-% contraction in test/% contraction in control)×100

Question: `CCn1ncc(NCc2ccc(OC)cc2OC)c(Cl)c1=O` [compound 99] was tested. Which inhibition at 10 µg/mL did it give?
Answer: The inhibition at 10 µg/mL was 99%.

Question: For `Cc1ccc(CNc2cnn(C(C)C)c(=O)c2Cl)c(C)c1` [Compound No. 80], which inhibition at 10 µg/mL is on record?
Answer: Its inhibition at 10 µg/mL is 99%.

Question: How did the inhibition at 10 µg/mL turn out when `CCCOc1cccc(CNc2cnn(CC)c(=O)c2Cl)c1` [compound 93] was run?
Answer: Its inhibition at 10 µg/mL is 96%.

Question: Which inhibition at 10 µg/mL does the source give for `COc1ccc(CNc2cnn(C(C)C)c(=O)c2)c(OC)c1` [Compound No. 100, 5-(2,4-dimethoxybenzylamino)-2-i-propyl-3(2H)pyridazinone] here?
Answer: Its inhibition at 10 µg/mL is 21%.

Question: With `COc1ccc(CNc2cnn(C(C)C)c(=O)c2Cl)cc1OCCCCC(=O)OC(C)(C)C` [compound 141] as the molecule, how does the inhibition at 10 µg/mL read?
Answer: The inhibition at 10 µg/mL was 90%.

Question: For `COc1cccc(CNc2cnn(C(C)C)c(=O)c2Cl)c1` [Compound No. 7], which inhibition at 10 µg/mL is on record?
Answer: Its inhibition at 10 µg/mL is 92%.

Question: For `COc1cc(CNc2cnn(C(C)C)c(=O)c2Cl)cc(OC)c1OC` [compound 122], which inhibition at 10 µg/mL is on record?
Answer: Its inhibition at 10 µg/mL is 23%.

Question: With `COc1ccc(CNc2cnn(C(C)(C)C)c(=O)c2Br)cc1OC` [compound 17] as the molecule, how does the inhibition at 10 µg/mL read?
Answer: The inhibition at 10 µg/mL was 80%.

Question: `CCOc1ccc(CNc2cnn(C(C)C)c(=O)c2Cl)cc1OC` [compound 107] was tested. Which inhibition at 10 µg/mL did it give?
Answer: The inhibition at 10 µg/mL was 65%.

Question: For `CCn1ncc(NCc2ccc(OC)cc2)c(Br)c1=O` [compound 154], which inhibition at 10 µg/mL is on record?
Answer: The inhibition at 10 µg/mL was 100%.

Question: With `Cc1ccc(CNc2cnn(C(C)C)c(=O)c2Br)c(C)c1` [compound 168] as the molecule, how does the inhibition at 10 µg/mL read?
Answer: The inhibition at 10 µg/mL was 99%.

Question: Which inhibition at 10 µg/mL does the source give for `CCOc1cc(CNc2cnn(CC)c(=O)c2Cl)ccc1OCc1ccccc1` [compound 115] here?
Answer: Its inhibition at 10 µg/mL is 73%.

Question: Which inhibition at 10 µg/mL does the source give for `CCOc1cc(CNc2cnn(C(C)C)c(=O)c2Cl)ccc1O` [compound 135] here?
Answer: Its inhibition at 10 µg/mL is 61%.

Question: How did the inhibition at 10 µg/mL turn out when `CCOc1cccc(CNc2cnn(C(C)C)c(=O)c2Cl)c1OC` [compound 111] was run?
Answer: Its inhibition at 10 µg/mL is 72%.

Question: With `CCOc1cccc(CNc2cnn(CC)c(=O)c2Br)c1` [compound 156] as the molecule, how does the inhibition at 10 µg/mL read?
Answer: The inhibition at 10 µg/mL was 72%.

Question: `COCCOc1cc(CNc2cnn(C(C)C)c(=O)c2Cl)ccc1OC` [compound 148] was tested. Which inhibition at 10 µg/mL did it give?
Answer: Its inhibition at 10 µg/mL is 62%.

Question: With `CC(C)n1ncc(N(C)Cc2cccc(OCCCCCO)c2)c(Cl)c1=O` [Compound No. 150, 4-Chloro-5-[3-(5-hydroxy)pentoxy-N-methyl-benzylamino]-2-i-propyl-3(2H)pyridazinone] as the molecule, how does the inhibition at 10 µg/mL read?
Answer: Its inhibition at 10 µg/mL is 57%.

Question: With `CCOc1cccc(CNc2cnn(C(C)C)c(=O)c2)c1O` [compound 128] as the molecule, how does the inhibition at 10 µg/mL read?
Answer: Its inhibition at 10 µg/mL is 21%.

Question: Which inhibition at 10 µg/mL does the source give for `CCc1cc(CNc2cnn(CC)c(=O)c2Cl)ccc1O` [compound 132] here?
Answer: Its inhibition at 10 µg/mL is 61%.

Question: Which inhibition at 10 µg/mL does the source give for `COc1ccc(CNc2cnn(C(C)C)c(=O)c2Cl)cc1OCCCCC(=O)O` [compound 143] here?
Answer: Its inhibition at 10 µg/mL is 28%.

Question: How did the inhibition at 10 µg/mL turn out when `CCc1cc(CNc2cnn(C(C)C)c(=O)c2Cl)ccc1O` [compound 131] was run?
Answer: The inhibition at 10 µg/mL was 52%.

Question: `COC(=O)CCCCOc1cc(CNc2cnn(C(C)C)c(=O)c2Cl)ccc1OC` [compound 145] was tested. Which inhibition at 10 µg/mL did it give?
Answer: Its inhibition at 10 µg/mL is 81%.

Question: How did the inhibition at 10 µg/mL turn out when `CCOc1cccc(CNc2cnn(CC)c(=O)c2Cl)c1OCc1ccccc1` [compound 116] was run?
Answer: The inhibition at 10 µg/mL was 89%.

Question: For `CCn1ncc(NCc2cccc(OC)c2)c(Cl)c1=O` [Compound No. 6], which inhibition at 10 µg/mL is on record?
Answer: Its inhibition at 10 µg/mL is 62%.

Same assay, conditions: test compound 10^-5 g/ml, LTD4 2×10^-8 g/ml, 5 min

Question: Which LTD4 antagonism does the source give for `CC(C)n1ncc(NCc2ccc(N(C)C)cc2)c(Cl)c1=O` [compound 45] here?
Answer: Its LTD4 antagonism is 14%.

Each molecule was assayed on LTC4 (assay: LTC4 antagonism in isolated guinea-pig trachea (LTC4-induced contraction)). Details: Cavia porcellus, 5 min, test compound 10^-5 g/ml; LTC4 2×10^-8 g/ml; guinea-pig trachea; read-out: LTC4 antagonism.
Type: cell-based
Experimental: as §1, §2

Question: With `CN(C)Cc1ccc(CNc2cnn(C(C)(C)C)c(=O)c2Cl)cc1` [compound 48] as the molecule, how does the inhibition at 10 µg/mL read?
Answer: The inhibition at 10 µg/mL was 30%.

Question: For `CC(C)(C)n1ncc(NCc2ccc(/C=C/C(=O)O)cc2)c(Cl)c1=O` [compound 24], which inhibition at 10 µg/mL is on record?
Answer: The inhibition at 10 µg/mL was 7%.

Question: How did the inhibition at 10 µg/mL turn out when `CC(C)(C)n1ncc(NCc2ccc(C(=O)N3CCOCC3)cc2)c(Cl)c1=O` [compound 40] was run?
Answer: The inhibition at 10 µg/mL was 17%.

Question: `CCN(CC)c1ccc(CNc2cnn(C(C)(C)C)c(=O)c2Cl)cc1` [compound 29] was tested. Which inhibition at 10 µg/mL did it give?
Answer: Its inhibition at 10 µg/mL is 68%.

Question: For `CCCOc1cccc(CNc2cnn(CC)c(=O)c2Cl)c1` [compound 93], which inhibition at 10 µg/mL is on record?
Answer: The inhibition at 10 µg/mL was 93%.

Question: For `CN(C)CCCNC(=O)c1ccc(CNc2cnn(C(C)(C)C)c(=O)c2Cl)cc1` [compound 59], which inhibition at 10 µg/mL is on record?
Answer: The inhibition at 10 µg/mL was 17%.

Question: Which inhibition at 10 µg/mL does the source give for `CCn1ncc(NCc2cccc(OC)c2)c(Cl)c1=O` [Compound No. 6] here?
Answer: The inhibition at 10 µg/mL was 33%.

Same assay, conditions: test compound 10^-5 g/ml; LTC4 2×10^-8 g/ml; guinea-pig trachea; 5 min

Question: Which LTC4 antagonism does the source give for `CCN1CCN(Cc2ccc(CNc3cnn(C(C)(C)C)c(=O)c3Cl)cc2)CC1` [compound 49] here?
Answer: The LTC4 antagonism was 8%.
